The supplement of paper PMC10307832

How the values were obtained:
Test in all cases: relative viability (nuclei count vs DMSO), 5 days (fraction); higher = more cells survive
[1] = compound: CC1(COc2ccc3c(c2)ncn3-c2ccc3cccc(N4CCC(N)CC4)c3n2)COC1 [Crenolanib] + COc1cccc2cc(-c3nc([C@H]4CC[C@H](C(=O)O)CC4)n4ncnc(N)c34)[nH]c12 [OSI-027] (partner 0.5 µM)
In short: (§1)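 Relative viability divides the nuclei count in treated wells by that in vehicle wells. Lung cancer cell lines were seeded in 1536-well plates, dosed by pin tool the next day, and fixed and stained after 5 days in one step with final 0.05% Triton X-100, 1% formaldehyde and 1 ug/ml Hoechst. Dosing was a single drug or a fixed anchor-drug dose plus five library-drug doses (not always all listed) in √10 steps, and values are medians of duplicate plates imaged at 4×.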

[2] = compound: CC1(COc2ccc3c(c2)ncn3-c2ccc3cccc(N4CCC(N)CC4)c3n2)COC1 [Crenolanib] + Cc1cc(Nc2cc(N3CCN(C)CC3)nc(Sc3ccc(NC(=O)C4CC4)cc3)n2)n[nH]1 [Tozasertib] (partner 0.1 µM)
In short: as §1

[3] = compound: CC1(COc2ccc3c(c2)ncn3-c2ccc3cccc(N4CCC(N)CC4)c3n2)COC1 [Crenolanib] + NC(=O)Nc1cc(-c2cccc(F)c2)sc1C(=O)N[C@H]1CCCNC1 [AZD7762] (partner 0.2 µM)
In short: as §1

[4] = compound: O=C1NC(=O)[C@@H](c2cn3c4c(cccc24)CCC3)[C@@H]1c1c[nH]c2ccccc12 [Tivantinib] + Cc1nc(NC(=O)N2CCC[C@H]2C(N)=O)sc1-c1ccnc(C(C)(C)C(F)(F)F)c1 [Alpelisib] (partner 2 µM)
In short: as §1

Cell Line	relative viability ([1]; first compound 0.01 µM)	relative viability ([1]; first compound 0.03162 µM)	relative viability ([1]; first compound 0.1 µM)	relative viability ([1]; first compound 0.3162 µM)	relative viability ([1]; first compound 1 µM)	relative viability ([2]; first compound 0.01 µM)	relative viability ([2]; first compound 0.03162 µM)	relative viability ([2]; first compound 0.1 µM)	relative viability ([2]; first compound 0.3162 µM)	relative viability ([2]; first compound 1 µM)	relative viability ([3]; first compound 0.01 µM)	relative viability ([3]; first compound 0.03162 µM)	relative viability ([3]; first compound 0.1 µM)	relative viability ([3]; first compound 0.3162 µM)	relative viability ([3]; first compound 1 µM)	relative viability ([4]; first compound 0.01 µM)	relative viability ([4]; first compound 0.03162 µM)	relative viability ([4]; first compound 0.1 µM)	relative viability ([4]; first compound 0.3162 µM)
NCI-H2342	0.704	0.599	0.592	0.726	0.594	0.546	0.496	0.682	0.483	0.454	0.607	0.475	0.475	0.532	0.484	–	–	–	–
SK-MES-1	0.598	0.657	0.508	0.581	0.599	0.899	0.832	0.847	0.912	0.746	–	–	–	–	–	0.912	0.867	0.929	0.444
EPLC-272H	0.315	0.288	0.249	0.296	0.329	0.385	0.352	0.257	0.286	0.377	0.207	0.238	0.376	0.289	0.251	0.975	0.922	0.836	0.672
HCC-44	0.498	0.496	0.611	0.519	0.434	1.07	0.781	0.89	0.578	0.57	1.05	0.955	1.01	1.07	0.973	0.844	0.703	0.858	0.793
201T	0.505	0.605	0.695	0.763	0.692	1.04	1.02	0.856	0.733	0.945	0.686	0.633	0.605	0.739	0.694	0.982	1	0.999	0.981
HOP-62	0.868	0.833	0.872	1.03	0.722	0.357	0.332	0.43	0.342	0.341	0.618	0.709	0.668	1.1	0.75	1.04	–	0.648	0.923
NCI-H650	0.564	0.534	0.52	0.492	0.348	0.826	0.79	0.707	0.327	0.614	1.06	0.975	1.01	0.864	0.936	1.24	–	0.956	1.02
NCI-H2085	0.707	0.745	0.706	0.865	0.709	0.895	0.841	0.726	0.754	0.816	–	0.983	0.997	0.972	1	1.03	0.934	1.01	0.837
NCI-H596	0.866	0.84	0.696	0.703	0.731	0.944	1.09	1.02	1.19	0.972	1.27	1.16	1.03	1.22	1.11	0.623	0.397	0.358	0.433
SK-LU-1	0.386	0.385	0.218	0.372	0.349	0.395	0.369	0.342	0.349	0.34	–	–	–	–	–	1.04	1.17	0.995	1.16
A-427	0.519	0.54	0.421	0.48	0.431	0.209	0.237	0.224	0.181	0.225	0.778	–	0.726	0.802	0.853	1.12	1.12	1.1	0.973
NCI-H460	0.825	0.685	0.682	0.752	0.598	0.621	0.44	0.421	0.056	0.397	0.668	0.482	0.695	0.872	0.86	0.508	0.373	0.447	0.473
NCI-H1734	0.706	0.563	0.561	0.822	0.566	0.275	0.251	0.249	0.306	0.275	0.569	0.61	0.567	0.756	0.659	0.677	0.597	0.64	0.681
NCI-H1915	0.583	0.646	0.592	0.634	0.417	0.453	0.415	0.436	0.424	0.391	0.745	0.74	0.688	0.793	0.585	1.07	1.01	1.09	1.04
Calu-6	–	–	–	–	–	–	–	–	–	–	–	–	–	–	–	0.987	1.03	1.02	0.955
SW 1573	0.667	0.664	0.51	0.493	0.578	0.175	0.198	0.137	0.212	0.174	–	–	–	–	–	0.941	0.738	0.741	0.716
RERF-LC-KJ	0.583	0.582	0.574	0.648	0.448	0.532	0.469	0.527	0.487	0.461	1.19	0.739	0.896	0.894	1.04	0.839	0.854	0.81	0.6
EMC-BAC-2	0.438	0.376	0.411	0.424	0.398	0.312	0.251	0.322	0.239	0.309	1.1	–	1.1	1.25	1.07	0.792	0.718	0.705	0.656
LK-2	0.208	0.195	0.233	0.17	0.183	0.164	0.179	0.19	0.177	0.171	0.483	0.46	0.423	0.499	0.453	1.24	–	0.58	0.668
